# According to US20130252935A1, “Monobactams” (PFIZER INC., priority 2010, published 2013):
# Key:
# Type in all cases: cell-based
# [1] = tested on: Klebsiella pneumoniae 1000-02; assay: minimum inhibitory concentration (MIC) testing according to CLSI guidelines, Klebsiella pneumoniae; conditions: Klebsiella pneumoniae; ciprofloxacin-resistant, ESBL-expressing clinical isolate 1000-02; overnight incubation; lower of duplicate values; read-out: AB-MBT: Klebsiella pneumoniae 1000-02: MIC (MstRcnt)
# Procedure, shortened: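 MIC by CLSI broth dilution with 2-fold concentration steps and overnight incubation; lowest concentration visibly inhibiting growth versus drug-free control. Ciprofloxacin-resistant, ESBL-expressing clinical isolate 1000-02. Run in duplicate, lower value reported when within 2-fold, with QC organisms and reference compounds per run.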
# [2] = tested on: Pseudomonas aeruginosa UC-12120; assay: minimum inhibitory concentration (MIC) testing according to CLSI guidelines, Pseudomonas aeruginosa; conditions: Pseudomonas aeruginosa, UC12120; UC-12120, wild-type, labeled as 1091-05; overnight incubation; lower of duplicate values; read-out: AB-MBT: Pseudomonas aeruginosa 1091-05: MIC (MstRcn)
# Procedure, shortened: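 Broth dilution MIC per CLSI guidelines against wild-type P. aeruginosa UC-12120 (1091-05), using 2-fold drug dilutions and overnight incubation with visual reading of lowest growth-inhibiting concentration. Tested in duplicate; lower value reported when within 2-fold, with control organisms and reference compounds for quality control.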
# [3] = tested on: Acinetobacter baumannii/haemolyticus AB-3167; assay: minimum inhibitory concentration (MIC) testing according to CLSI guidelines, Acinetobacter; conditions: Acinetobacter baumannii; multidrug-resistant clinical isolate AB-3167; overnight incubation; lower of duplicate values; read-out: AB-MBT: Acinetobacter baumanii AB-3167: MIC (MstRcnt)
# Procedure, shortened: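 Broth dilution MIC per CLSI M7-A8/M100-S20 against multidrug-resistant clinical isolate AB-3167, using 2-fold drug dilutions and overnight incubation; MIC is the lowest concentration without visible growth. Duplicates within 2-fold reported as the lower value, with control strains and reference compounds in range.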
Structure (SMILES),MIC [1],MIC [2],MIC [3]
"CC(C)(O/N=C(\C(=O)N[C@@H]1C(=O)N(S(=O)(=O)O)[C@@H]1CNc1cc(C(=O)NCc2cc(=O)c(O)cn2O)ccn1)c1csc(N)n1)C(=O)O [Example 50, 2-({[(1Z)-1-(2-amino-1,3-thiazol-4-yl)-2-{[(2R,3S)-2-{[(4-{[(1,5-dihydroxy-4-oxo-1,4-dihydropyridin-2-yl)methyl]carbamoyl}pyridin-2-yl)amino]methyl}-4-oxo-1-sulfoazetidin-3-yl]amino}-2-oxoethylidene]amino}oxy)-2-methylpropanoic acid]",0.5 µg/mL,0.125 µg/mL,0.5 µg/mL
"Nc1nc(/C(=N/OC2(C(=O)O)CCC2)C(=O)N[C@@H]2C(=O)N(S(=O)(=O)O)[C@@H]2CNC(=O)CCC(=O)NCc2cc(=O)c(O)cn2O)cs1 [Example 60, 1-({[(1Z)-1-(2-amino-1,3-thiazol-4-yl)-2-{[(2R,3S)-2-{[(4-{[(1,5-dihydroxy-4-oxo-1,4-dihydropyridin-2-yl)methyl]amino}-4-oxobutanoyl)amino]methyl}-4-oxo-1-sulfoazetidin-3-yl]amino}-2-oxoethylidene]amino}oxy)cyclobutanecarboxylic acid]",0.5 µg/mL,0.125 µg/mL,0.25 µg/mL
"CC(C)(O/N=C(\C(=O)N[C@@H]1C(=O)N(S(=O)(=O)O)[C@@H]1CNC(=O)c1cc(=O)c(O)c[nH]1)c1csc(N)n1)C(=O)O [Example 10, 2-({[(1Z)-1-(2-amino-1,3-thiazol-4-yl)-2-{[(2R,3S)-2-({[(5-hydroxy-4-oxo-1,4-dihydropyridin-2-yl)carbonyl]amino}methyl)-4-oxo-1-sulfoazetidin-3-yl]amino}-2-oxoethylidene]amino}oxy)-2-methylpropanoic acid]",0.5 µg/mL,0.125 µg/mL,0.25 µg/mL
"Cn1cc(O)c(=O)cc1C(=O)NC[C@@H]1[C@H](NC(=O)/C(=N\OC(C)(C)C(=O)O)c2csc(N)n2)C(=O)N1S(=O)(=O)O [Example 35, 2-({[(1Z)-1-(2-amino-1,3-thiazol-4-yl)-2-{[(2R,3S)-2-({[(5-hydroxy-1-methyl-4-oxo-1,4-dihydropyridin-2-yl)carbonyl]amino}methyl)-4-oxo-1-sulfoazetidin-3-yl]amino}-2-oxoethylidene]amino}oxy)-2-methylpropanoic acid]",0.25 µg/mL,4 µg/mL,0.5 µg/mL
